Results from doi:10.1101/2024.12.23.630153v1 (biorxiv, 2024).
Where two headings read alike, the source gives them in different places.

Key:
OXA-57 [1] = target: T1, OXA-57 (Burkholderia pseudomallei, UniProt Q6ZZZ2); experiment: biochemical
OXA-57 [2] = target: T1, OXA-57
OXA-57 [3] = target: T1, OXA-57; experiment: biochemical; conditions: pIC50

T1 sequence (Q6ZZZ2 24-269 limits assumed): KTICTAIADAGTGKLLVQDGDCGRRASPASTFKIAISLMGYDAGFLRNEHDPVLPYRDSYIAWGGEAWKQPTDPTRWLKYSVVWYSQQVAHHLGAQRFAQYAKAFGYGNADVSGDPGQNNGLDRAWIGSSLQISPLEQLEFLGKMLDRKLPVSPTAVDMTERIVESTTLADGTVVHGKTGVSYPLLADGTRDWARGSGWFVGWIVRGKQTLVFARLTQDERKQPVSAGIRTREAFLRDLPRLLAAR

| Structure (SMILES) | IC50 (OXA-57 [1]) [µM] | Ki (OXA-57 [2]) [µM] | IC50 (OXA-57 [3]) [µM] |
| --- | --- | --- | --- |
| C[C@H]1[C@H](NC(=O)/C(=N\OC(C)(C)C(=O)O)c2csc(N)n2)C(=O)N1S(=O)(=O)O [Aztreonam] | > 3980 |  |  |
| CO/N=C(\C(=O)N[C@@H]1C(=O)N2C(C(=O)O)=C(COC(C)=O)CS[C@H]12)c1csc(N)n1 [Cefotaxime] | > 3980 |  |  |
| CC(C)(O/N=C(\C(=O)N[C@@H]1C(=O)N2C(C(=O)[O-])=C(C[n+]3ccccc3)CS[C@H]12)c1csc(N)n1)C(=O)O [Ceftazidime] | > 3980 |  |  |
| CC(=O)OCC1=C(C(=O)O)N2C(=O)[C@@H](NC(=O)Cc3cccs3)[C@H]2SC1 [Cephalothin] |  | 405 ± 97 |  |
| O=C(O)[C@H]1/C(=C/CO)O[C@@H]2CC(=O)N21 [Clavulanate] | 9.4 |  | 12.6 |
| C[C@@H](O)[C@H]1C(=O)N2C(C(=O)O)=C(SCCN=CN)C[C@H]12 [Imipenem] |  | 265 ± 79 |  |
| C[C@@H](O)[C@H]1C(=O)N2C(C(=O)O)=C(S[C@@H]3CN[C@H](C(=O)N(C)C)C3)[C@H](C)[C@H]12 [Meropenem] |  | 646 ± 355 |  |
| O=C(O)C[C@@H]1CC[C@H](NC(=O)Cc2cccs2)B(O)O1 [Vaborbactam] | > 3980 |  |  |
